For one assay, the system named is K562. As to the kind of experiment: Cytotoxicity against human K562 cells assessed as reduction in cell viability after 72 hrs by MTT assay. The assay is classed as functional, cell-based. The settings on record: K562, 72 h.
Another assay relates to HL-60. As to the kind of experiment: Cytotoxicity against human HL60 cells assessed as reduction in cell viability after 72 hrs by MTT assay. It is filed as functional, cell-based. Conditions: HL-60, 72 h.
The test system of assay [1] is Calf thymus DNA. As to the kind of experiment: Binding affinity to calf thymus DNA by UV-Visible absorption spectroscopy. It is filed as nucleic-acid assay. The settings on record: Bos taurus.
Assay [2] deals with Calf thymus DNA. As to the kind of experiment: Inhibition of ethidium bromide binding to calf thymus DNA by fluorescence spectra analysis. The assay is classed as nucleic-acid assay. The settings on record: Bos taurus.
Another assay concerns MCF7. As to the kind of experiment: Cytotoxicity against human MCF7 cells assessed as reduction in cell viability after 72 hrs by MTT assay. The assay is classed as functional, cell-based. Conditions: MCF7, 72 h. For orientation: Formazan colour is commonly taken as a measure of viable cells.
For assay [3], the system named is Calf thymus DNA. As to the kind of experiment: Binding affinity to calf thymus DNA assessed as change in absorption maximum at 10 to 80 uM by UV-Visible absorption spectroscopy (reference value: 425 to 500 nanometer). The settings on record: Bos taurus. The assay is classed as nucleic-acid assay.
The next assay concerns T47D. As to the kind of experiment: Cytotoxicity against human T47D cells assessed as reduction in cell viability after 72 hrs by MTT assay. The assay is classed as functional, cell-based.
Assay [4] concerns Calf thymus DNA. As to the kind of experiment: Binding affinity to calf thymus DNA assessed as hypochromicity at 10 to 80 uM by UV-Visible absorption spectroscopy relative to control. It is filed as nucleic-acid assay. Conditions: Bos taurus.
Assay [5] relates to Calf thymus DNA. As to the kind of experiment: Binding affinity to calf thymus DNA assessed as hyperchromicity at 10 to 80 uM by UV-Visible absorption spectroscopy relative to control. The settings on record: Bos taurus. It is filed as nucleic-acid assay.
Assay [6] concerns Calf thymus DNA. As to the kind of experiment: Inhibition of ethidium bromide binding to calf thymus DNA at 20 to 200 uM by fluorescence spectra analysis. The settings on record: Bos taurus. The assay is classed as nucleic-acid assay.
Assay [7] deals with T1, DNA topoisomerase 1 (Homo sapiens) (UniProt P11387).
T1 sequence (whole entry): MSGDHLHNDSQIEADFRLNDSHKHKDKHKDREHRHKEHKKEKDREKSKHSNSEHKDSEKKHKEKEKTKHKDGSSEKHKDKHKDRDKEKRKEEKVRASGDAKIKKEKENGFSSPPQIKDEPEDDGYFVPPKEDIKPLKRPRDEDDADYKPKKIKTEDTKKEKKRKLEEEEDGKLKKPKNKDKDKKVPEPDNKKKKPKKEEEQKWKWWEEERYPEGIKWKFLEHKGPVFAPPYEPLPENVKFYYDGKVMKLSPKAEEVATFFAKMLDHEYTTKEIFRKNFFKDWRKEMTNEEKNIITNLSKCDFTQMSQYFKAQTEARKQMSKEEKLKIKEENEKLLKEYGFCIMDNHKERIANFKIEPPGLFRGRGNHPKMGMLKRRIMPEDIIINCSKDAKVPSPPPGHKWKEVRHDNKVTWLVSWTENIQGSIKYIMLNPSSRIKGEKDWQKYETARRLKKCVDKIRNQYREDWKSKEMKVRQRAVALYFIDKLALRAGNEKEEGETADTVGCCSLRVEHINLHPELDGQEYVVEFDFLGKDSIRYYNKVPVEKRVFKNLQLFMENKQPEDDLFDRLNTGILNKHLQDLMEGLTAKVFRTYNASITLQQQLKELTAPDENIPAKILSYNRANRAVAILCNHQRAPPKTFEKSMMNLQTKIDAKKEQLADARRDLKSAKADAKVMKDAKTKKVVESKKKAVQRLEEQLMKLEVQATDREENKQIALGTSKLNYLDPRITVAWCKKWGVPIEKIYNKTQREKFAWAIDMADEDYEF
As to the kind of experiment: Inhibition of human recombinant topoisomerase 1-mediated relaxation of supercoiled pUC19 DNA at 10 to 50 uM after 45 mins by ethidium bromide staining based agarose gel electrophoresis method.

Structures are written as SMILES. Activity calls are given as the source filed them. No cut-off for these calls is given here. Bounds are passed on as bounds.

With `O=C1NC(=S)N/C1=C\c1c[nH]c2ccccc12`, the 50% inhibitory concentration (IC50) was greater than 50 µM in the assay with K562, greater than 50 µM with HL-60, 12.4 µM in the assay with MCF7 and greater than 50 µM in the assay on T47D. The molecule further displayed a Kb with Calf thymus DNA [1] of 6.27 ×10⁴ /M. Also, in the assay with Calf thymus DNA [2], the KSV amounted to 1.36 ×10³ /M. Moreover, the Activity in the assay on Calf thymus DNA [3] came to 423 nm; with Calf thymus DNA [4], 11%.

Consider `COc1cccc2c1C(=O)c1c(O)c3c(c(O)c1C2=O)C[C@@](O)(C(=O)CO)C[C@@H]3O[C@H]1C[C@H](N)[C@H](O)[C@H](C)O1` [DOXORUBICIN], for which the IC50 worked out at 6.25 µM with K562, 0.01 µM with HL-60, 2.71 µM in the assay on MCF7 and 4.61 µM in the assay with T47D.

Regarding `O=C1NC(=S)S/C1=C\c1c[nH]c2ccc(Br)cc12`, the Activity in the assay on Calf thymus DNA [5] was 8%; with Calf thymus DNA [3], 462 to 465 nm. Also, the half-inhibitory concentration (IC50) is greater than 50 µM in the assay with K562, greater than 50 µM with HL-60, 3.65 µM in the assay with MCF7 and 11.7 µM with T47D. For the same molecule, the Kb with Calf thymus DNA [1] was 1.56 ×10⁴ /M. Further, the KSV in the assay with Calf thymus DNA [2] worked out at 6.31 ×10³ /M.

Regarding `O=C1NC(=O)/C(=C/c2c[nH]c3ccc(Br)cc23)S1`, the half-inhibitory concentration (IC50) in the assay with K562, in the assay with HL-60, in the assay with MCF7 and in the assay with T47D was greater than 50 µM throughout. In the assay on Calf thymus DNA [1], the Kb turned out to be 5.24 ×10⁴ /M. Besides, the KSV in the assay on Calf thymus DNA [2] came to 3.86 ×10³ /M. The Activity amounted to 457 nm with Calf thymus DNA [3] and 6% with Calf thymus DNA [4].

Take `O=C1NC(=S)S/C1=C\c1c[nH]c2ccccc12`: the figures for the Activity in the assay on Calf thymus DNA [5] and in the assay with Calf thymus DNA [3] were 75% and 436 to 462 nm, respectively. The 50% inhibitory concentration (IC50) in the assay on K562, in the assay on HL-60, in the assay on MCF7 and in the assay with T47D was greater than 50 µM in each case. Besides, the Kb in the assay with Calf thymus DNA [1] was found to be 4.51 ×10⁴ /M. For the same molecule, the KSV with Calf thymus DNA [2] is 1.78 ×10³ /M.

On to `NN1C(=O)/C(=C/c2c[nH]c3ccccc23)SC1=S`, for which, in the assay on Calf thymus DNA [6], the outcome was Active. Moreover, the Activity with Calf thymus DNA [5] is 6%; in the assay with Calf thymus DNA [3], 504 to 507 nm. In addition, the half-maximal inhibitory concentration (IC50) with K562 is 22.5 µM; in the assay on HL-60, 3.61 µM; with MCF7, greater than 50 µM; in the assay with T47D it was greater than 50 µM. Besides, the Kb in the assay with Calf thymus DNA [1] amounted to 5.69 ×10⁴ /M. In the assay on Calf thymus DNA [2], this molecule returned a KSV of 1.81 ×10⁴ /M. The inhibition entry in assay [7] is “Active”.

Turning to `O=C1NC(=O)/C(=C/c2c[nH]c3ccccc23)S1`, the IC50 with K562 is greater than 50 µM; in the assay on HL-60 it was 12.8 µM; in the assay with MCF7, greater than 50 µM; in the assay on T47D, 1.93 µM. In the assay with Calf thymus DNA [1], this molecule came in with a Kb of 7.26 ×10⁴ /M. The KSV in the assay on Calf thymus DNA [2] came out at 1.59 ×10³ /M. The Activity in the assay with Calf thymus DNA [3] was determined as 378 nm; with Calf thymus DNA [4] it was 24%.

Regarding `NN1C(=O)/C(=C/c2c[nH]c3ccc(Br)cc23)SC1=S`, the Activity was 23% in the assay with Calf thymus DNA [5] and 411 to 413 nm in the assay on Calf thymus DNA [3]. Further, the half-inhibitory concentration (IC50) in the assay with K562 is greater than 50 µM; with HL-60, 6.74 µM; in the assay on MCF7, greater than 50 µM; with T47D it was greater than 50 µM. For the same molecule, the Kb with Calf thymus DNA [1] worked out at 1.84 ×10⁴ /M. Also, the KSV with Calf thymus DNA [2] is 2.96 ×10³ /M.

What is called IC50 is the concentration that inhibits the measured activity by half.
